IC50 data for 3 compounds are collected here from ChEMBL document CHEMBL5728415, “Heteroaryl-substituted sulfonamide compounds and their use as therapeutic agents” (2021).

Experiment [1] can be described thus: Sodium Influx Assay (In Vitro Assay): This sodium influx assay employs the use of the cell permeable, sodium sensitive dye ANG2 to quantify sodium ion influx through sodium channels which are maintained in an open state by use of sodium channel modulators. This high throughput sodium influx assay allows for rapid profiling and characterization of sodium channel blockers.In general, Trex HEK293 ….

In experiment [2] the target is Sodium channel protein type 8 subunit alpha (Homo sapiens, UniProt Q9UQD0). Described as above.
Sequence of Sodium channel protein type 8 subunit alpha (Q9UQD0 whole entry): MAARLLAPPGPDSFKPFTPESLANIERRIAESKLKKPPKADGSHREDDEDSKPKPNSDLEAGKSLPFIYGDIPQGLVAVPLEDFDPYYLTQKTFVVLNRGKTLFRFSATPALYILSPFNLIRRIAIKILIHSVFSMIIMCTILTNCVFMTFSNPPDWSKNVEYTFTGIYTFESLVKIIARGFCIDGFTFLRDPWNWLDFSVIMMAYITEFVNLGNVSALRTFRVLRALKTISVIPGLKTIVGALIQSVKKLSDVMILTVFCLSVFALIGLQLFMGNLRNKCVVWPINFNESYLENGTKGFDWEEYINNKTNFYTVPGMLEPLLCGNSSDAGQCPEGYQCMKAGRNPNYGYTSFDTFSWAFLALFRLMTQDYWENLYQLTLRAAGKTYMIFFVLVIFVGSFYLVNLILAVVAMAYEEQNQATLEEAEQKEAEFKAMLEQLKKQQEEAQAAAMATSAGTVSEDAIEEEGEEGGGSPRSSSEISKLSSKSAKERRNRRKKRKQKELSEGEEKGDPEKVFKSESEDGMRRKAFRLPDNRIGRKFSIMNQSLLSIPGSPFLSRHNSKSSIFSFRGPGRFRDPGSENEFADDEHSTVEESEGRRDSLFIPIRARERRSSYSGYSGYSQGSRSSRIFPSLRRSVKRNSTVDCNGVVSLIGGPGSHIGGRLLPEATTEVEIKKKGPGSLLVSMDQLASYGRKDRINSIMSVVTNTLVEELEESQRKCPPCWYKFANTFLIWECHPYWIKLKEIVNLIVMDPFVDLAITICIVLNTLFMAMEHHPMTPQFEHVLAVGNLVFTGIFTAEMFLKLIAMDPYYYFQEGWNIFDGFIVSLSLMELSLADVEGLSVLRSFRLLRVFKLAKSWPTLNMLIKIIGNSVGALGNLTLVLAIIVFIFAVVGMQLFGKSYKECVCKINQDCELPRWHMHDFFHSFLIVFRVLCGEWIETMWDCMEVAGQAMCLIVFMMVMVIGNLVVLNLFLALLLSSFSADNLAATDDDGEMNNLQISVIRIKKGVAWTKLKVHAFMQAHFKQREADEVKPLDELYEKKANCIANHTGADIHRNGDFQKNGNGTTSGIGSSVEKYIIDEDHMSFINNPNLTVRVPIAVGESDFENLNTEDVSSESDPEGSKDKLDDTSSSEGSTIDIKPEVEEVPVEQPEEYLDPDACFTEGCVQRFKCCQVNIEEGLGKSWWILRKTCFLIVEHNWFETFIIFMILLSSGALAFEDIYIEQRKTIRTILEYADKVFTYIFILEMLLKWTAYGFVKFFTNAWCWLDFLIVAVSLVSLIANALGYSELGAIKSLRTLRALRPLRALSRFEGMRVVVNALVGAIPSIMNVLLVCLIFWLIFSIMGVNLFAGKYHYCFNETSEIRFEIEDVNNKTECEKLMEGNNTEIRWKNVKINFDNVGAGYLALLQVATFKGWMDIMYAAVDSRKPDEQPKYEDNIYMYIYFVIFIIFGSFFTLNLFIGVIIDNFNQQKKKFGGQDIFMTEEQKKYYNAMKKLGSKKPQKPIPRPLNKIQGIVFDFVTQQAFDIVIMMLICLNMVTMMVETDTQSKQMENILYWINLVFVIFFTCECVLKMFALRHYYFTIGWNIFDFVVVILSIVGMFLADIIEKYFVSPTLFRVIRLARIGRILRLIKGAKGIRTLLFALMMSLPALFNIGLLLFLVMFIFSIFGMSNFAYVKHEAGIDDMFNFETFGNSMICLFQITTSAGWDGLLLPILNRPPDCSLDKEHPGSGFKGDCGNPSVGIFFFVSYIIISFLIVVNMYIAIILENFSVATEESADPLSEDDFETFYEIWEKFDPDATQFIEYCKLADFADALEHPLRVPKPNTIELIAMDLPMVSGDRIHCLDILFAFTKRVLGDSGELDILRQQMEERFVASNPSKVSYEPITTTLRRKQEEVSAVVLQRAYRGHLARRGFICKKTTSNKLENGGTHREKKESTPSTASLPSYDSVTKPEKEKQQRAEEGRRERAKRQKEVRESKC

In general, IC50 refers to the concentration at which inhibition is half-maximal. Read a high IC50 as a need for much substance. Turning to `Cc1nc(NCc2c(F)cccc2CN2CCCC2)ccc1S(=O)(=O)Nc1cscn1`, the IC50 in experiment [1] was 6.18 µM.

In experiment [1], `Cc1cc(S(=O)(=O)Nc2cccc(F)n2)ncc1NCc1c(F)cccc1CN1CCCC1` gave an IC50 of 28.8 µM. Against the preceding compound, the IC50 is about 4.7-fold higher. For the compound `Cc1nc(S(=O)(=O)Nc2cscn2)c(F)cc1NCc1c(F)cccc1CN1C2CCC1CC2`, the IC50 in experiment [2] was 0.037 µM. This counts as double-digit nanomolar.
